Measurements published in US20240293430A1, “WITHAFERIN A AND IMMUNE CHECKPOINT BLOCKER COMBINATION THERAPIES” (University of South Florida, priority 2023, published 2024).

Tested on: PARP, BCL-XL, CHOP, p-eIF-2 in NSCLC cell lines
Test: Western blot of apoptosis and ER stress markers
Format: cell-based, mouse (LLC), human (H1650)
Method: FIGS. 1A-lE depict that WFA induces ER stress-mediated apoptosis in NSCLC cell lines. (FIG. 1A) NSCLC cells were plated on 96-well plates and treated with different concentrations of WFA ([…]) in triplicates. Forty-eight hours post-treatment, cell viability was determined using Cell Titer-Glo assay. Luminescence values were normalized to control untreated cells and IC50 values are represented as the mean of two independent experiments ±SEM. (FIG. 1B) NSCLC cells were treated WFA for forty-eight hours, then collected to measure apoptotic cell death using Annexin V assay in LLC cells, H1650 cells, and A549 cells. Percentages of early (annexin*DAPI-) and late (annexin*DAPI+) apoptotic cells are represented as means of two separate experiments ±SEM and statistical significance was calculated using one-way ANOVA and a Fisher LSD post hoc test was used to compare the mean of each group to that of the control group. (FIGS. 1C-1D) WFA treated cells were collected in Trizol and total RNA was isolated to measure the levels of Bax (FIG. 1C) and Bcl2 (FIG. 1D) mRNA using qRT-PCR. PCR experiments were repeated at least twice, and one representative experiment is shown as mean±SEM of the technical replicates. (FIG. 1E) Western blot of ER stress markers p-eIF-2 and CHOP was performed using total lysates of WFA-treated LLC cells. The quantification of western blot band density was performed using Image J software v.1.54d and normalized to housekeeping control protein in LLC cells (0-actin). […] Data were obtained from two independent experiments.
FIGS. 7A-7I depict qRT-PCR analysis of the change in expression of pro-apoptotic and anti-apoptotic induced by WFA treatment. WFA increased the mRNA levels of proapoptotic protein Bak-1 in (FIG. 7A) LLC cells and BAD in (FIG. 7C) H1650 cells. […]
Total protein was isolated using Radioimmunoprecipitation Assay (RIPA) buffer (Thermo Fisher Scientific, Waltham, MA, USA) and sonication of cell pellets using Branson digital sonifier 450. […] Then, protein levels were quantified using a Pierce Coomassie Protein assay kit (Thermo Fisher Scientific, Waltham, MA, USA) according to the manufacturer's instruction and the absorbance values at 595 nm were measured using a plate reader (Bio Tek, Winooski, VT, USA) and used to calculate protein concentrations. […] Protein bands were detected using SuperSignal West Pico PLUS Chemiluminescent Substrate or West Femto Maximum Sensitivity Substrate (Thermo Fisher Scientific, Waltham, MA, USA) and imaged using the ChemiDoc XRS imaging system (Bio-Rad, Hercules, CA, USA) according to the manufacturer's instructions. Band density was measured using Image J software version 1.54d and was normalized to housekeeping proteins (0-actin or Vinculin). […]

## CC1=C(CO)C(=O)O[C@@H]([C@@H](C)[C@H]2CC[C@H]3[C@@H]4C[C@H]5O[C@]56[C@@H](O)C=CC(=O)[C@]6(C)[C@H]4CC[C@]23C)C1 [WFA, Withaferin A]
H1650 cells
  levels of BCL-XL: reduced
LLC and H1650 cells
  PARP cleavage: increased
LLC cells
  levels of C/EBP homologous protein (CHOP): increases
  phosphorylation of eIF-2: increases
